For experiment [1], the system named is XBP-1 mRNA splicing. The experiment can be described thus: XBP-1 splicing assay in J774 macrophages. It is filed as cell-based, mouse. The settings on record: for effect of inhibitor on LPS-induced XBP-1 splicing: LPS stimulation.
A further experiment has as its system IFNβ. Particulars: macrophage cell line; J. Smith et al. 2008; cited from earlier work.
The test system of experiment [2] is XBP-1 mRNA splicing. The experiment is described as follows: XBP-1 splicing in primary macrophages. It is filed as cell-based, mouse.
In experiment [3] the test system is CHOP, PDI, WSF1 expression. The experiment can be described thus: ER-stress related gene expression in primary macrophages. It is filed as cell-based, mouse.
The subject of experiment [4] is CHOP, BiP, Erdj4 and PDI expression. The experiment can be described thus: ER-stress target gene expression (quantitative RT-PCR) in J774 macrophages. The settings on record: for induction of the classic ER stress downstream target genes CHOP and BiP: J774 macrophages stimulated with the substance. It is filed as cell-based, mouse. The procedure: (§1) Total RNA was prepared using Trizol (Invitrogen) and cDNA synthesis with High capacity cDNA Reverse transcription kit purchased from Applied Biosystems. Quantitative RT-PCR was performed employing SYBR green fluorescent reagent on a Mx3005P® QPCR System from Strategene. The relative amounts of mRNA were calculated from the values of comparative threshold cycle by using β-actin as control.
(§2) The ability of TLRs to activate the three branches of the ER stress response was tested. J774 macrophages were stimulated with the TLR4 and TLR2 agonists, LPS and Pam3CSK4, and IRE1α, PERK and ATF6 activation were analyzed. ATF6 activation was tested by monitoring the liberation of its cleaved fragment, and PERK and IRE1α activation by examining their phosphorylation status. […] To further examine the effects of TLR signaling on the classical. ER stress response, cells were stimulated with tunicamycin (TM), a potent pharmacologic ER-stress inducer, in the presence or absence of LPS. […] Therefore, TLRs trigger a biased ER-stress response by activating IRE1 while inhibiting the PERK and ATF6 pathways.

The test system of another experiment is PERK. The experiment can be described thus: PERK activation (phosphorylation status) in J774 macrophages. It is filed as cell-based, mouse. Particulars: J774 macrophages stimulated with the substance. As to the method:
(§3) Total cell extracts were loaded on SDS-PAGE for separation and transferred to PDVF membranes. For Western blot the following antibodies were used: anti-XBP-1s (Biolegend), anti-phospho PERK, IRE1 and phospho-JNK (Cell Signaling), ATF4, HSP90, IkappaBβ and CHOP (Santa Cruz Biotechnology), anti-ATF6α and anti proIL-1β.
as §2

In the next experiment the test system is ATF6. The experiment can be described thus: ATF6 activation (liberation of cleaved fragment) in J774 macrophages. It is filed as cell-based, mouse. Particulars: for activation of ATF6 (cleaved fragment): J774 macrophages stimulated with the substance. The procedure: as §3, §2
Another experiment concerns IRE1α. The experiment is described as follows: IRE1α activation (phosphorylation status, immunoblot) in J774 macrophages. Particulars: J774 macrophages stimulated with the substance. It is filed as cell-based, mouse. The procedure: as §3, §2
(In general: Immunoblotting shows a protein as a band on a membrane.)

The subject of the next experiment is IL-6. The experiment is described as follows: IL-6 production by LPS stimulated macrophages under ER stress. It is filed as cell-based, mouse.
Another experiment concerns ISG15. The experiment is described as follows: ISG15 production by LPS stimulated macrophages under ER stress. The settings on record: cells simultaneously ER-stressed with TM. It is filed as cell-based, mouse. As to the method: as §1
Therefore, it was determined whether augmenting this pathway through pharmacologic induction of an ER stress response would enhance the natural response to microbial products. […] Importantly, this finding was confirmed in primary WT and XBP-1Δ macrophages that were left untreated or pre-treated for 12 h with a low dose of TM and then stimulated with LPS for 3 h.

Setting [5] is: J774 macrophages, co-treatment with TM.

In the case of `c1ccc2c(c1)[I+]c1ccccc1-2` [DPI, diphenyleneiodonium chloride], the “effect of inhibitor on LPS-induced XBP-1 splicing” value in the experiment with XBP-1 mRNA splicing [1] is given as “abolished”.

Take `COc1cc(C(C)=O)ccc1O` [apocynin]: the “effect of inhibitor on LPS-induced XBP-1 splicing” value in the experiment with XBP-1 mRNA splicing [1] is reported as “abolished”.

Regarding `C/C=C(/C)C(=O)O[C@H]1C(C)=C2[C@H]([C@@H]1OC(=O)CCCCCCC)[C@@](C)(OC(C)=O)C[C@H](OC(=O)CCC)[C@@]1(O)[C@H]2OC(=O)[C@@]1(C)O` [thapsigargin], in the experiment on IFNβ, the “IFNβ production upon stimulation with LPS” value is given as “increased IFNβ production”.

Regarding FSL1, in the experiment with XBP-1 mRNA splicing [2], the “XBP-1 splicing in TLR2 deficient macrophages” value is given as “did not activate XBP-1 splicing”.

Consider Pam3CSK4, for which, in experiment [3] (primary macrophages from MyD88 deficient mice), the “TLR2 dampening of the ER-stress response: dependence on MyD88” value is reported as “MyD88 dependent”. Besides, the “XBP-1 splicing in TLR2 deficient macrophages” value in the experiment with XBP-1 mRNA splicing [2] is on record as “did not activate XBP-1 splicing”. Besides, the “induction of the classic ER stress downstream target genes CHOP and BiP” value in experiment [4] is “nor induction of the classic ER stress downstream target genes, CHOP and BiP, was observed”. Moreover, the “activation of PERK (phosphorylation status)” value (shortened to “activation of PERK”) in the experiment with PERK is recorded as “neither activation of ATF6 or PERK”. For the same molecule, in the experiment with ATF6, the “activation of ATF6 (cleaved fragment)” value is reported as “neither activation of ATF6 or PERK”. Moreover, the “activation of IRE1α (slower migrating phosphorylated species)” value in the experiment on IRE1α is listed as “Clear activation”.

On to lipopolysaccharide [LPS], for which the “induction of classic ER-stress related genes such as CHOP or PDI” value in experiment [3] (XBP-1Δ macrophages or WT macrophages) is “no induction”. In addition, the “activation of XBP-1 in TLR4 mutant macrophages” value in the experiment with XBP-1 mRNA splicing [2] (macrophages from mice carrying a mutation in the signaling domain of TLR4) is “did not activate XBP-1”. For the same molecule, in the experiment with XBP-1 mRNA splicing [2] (macrophages, TM plus LPS), the “effect on TM-induced XBP-1 splicing” value was “increased”. For the same molecule, the “activation of XBP-1 in wild type primary macrophages” value with XBP-1 mRNA splicing [2] (primary macrophages from wild type (WT) mice) is recorded as “observed”. Besides, in experiment [4] (J774 macrophages), the “expression of the XBP-1 target genes Erdj4 or PDI” value is reported as “did not induce”. In [4], the “induction of the classic ER stress downstream target genes CHOP and BiP” value is “nor induction of the classic ER stress downstream target genes, CHOP and BiP, was observed”. The “effect of co-treatment on TM induction of mRNAs including CHOP, PDI and Erdj4” value in [4] (setting [5]) is given as “dramatically repressed”. The “classic ER-stress response as measured by CHOP, BiP, Erdj4 and PDI expression” value in experiment [4] (J774 macrophages, experiment with or without TM) was “did not induce a classic ER-stress response”. In the experiment with PERK, the “activation of PERK” value was “neither activation of ATF6 or PERK”. In addition, the “activation of ATF6 (cleaved fragment)” value in the experiment with ATF6 is given as “neither activation of ATF6 or PERK”. In the experiment with ATF6 (setting [5]), the “effect of co-treatment on proteolytic processing of ATF6α by TM” value is listed as “dramatically repressed”. Besides, the “activation of IRE1α (slower migrating phosphorylated species)” value with IRE1α is recorded as “Clear activation”. In the experiment with XBP-1 mRNA splicing [1] (J774 macrophages, time after stimulation), the “splicing of XBP-1 mRNA and production of XBP-1s protein” value was “detected as early as 3 hours”.

With tunicamycin [TM], the “induction of PDI and WSF1 in XBP-1Δ macrophages” value in [3] (XBP-1Δ macrophages versus WT) is “reduced”. Moreover, the “activation of PERK” value in the experiment on PERK was “induced activation of all three branches”. In addition, the “amount of IL-6 produced by LPS stimulated macrophages” value in the experiment with IL-6 (cells simultaneously ER-stressed with TM) was “dramatically and synergistically increased”. In the experiment with IL-6 (pre-treated 12 h with low dose of TM, then LPS 3 h), the “IL-6 production in primary WT macrophages” value is on record as “augmented IL-6 production”. The “activation of ATF6 (cleaved fragment)” value in the experiment with ATF6 was “induced activation of all three branches”. Besides, in the experiment on IRE1α, the “activation of IRE1α (slower migrating phosphorylated species)” value is listed as “induced activation of all three branches”. In the experiment with ISG15, the “amount of ISG15 produced by LPS stimulated macrophages” value was “dramatically and synergistically increased”.

These data come from US20120141539A1, “METHODS FOR MODULATING TOLL-LIKE RECEPTOR MEDIATED ACTIVATION OF CELLS OF THE INNATE SYSTEM BY MODULATING XBP-1 ACTIVITY” (PRESIDENT AND FELLOWS OF HARVARD COLLEGE, priority 2009, published 2012).
